We go through three molecules from patent publication US5834454A, “Substituted guanidine derivatives, process for production thereof, and pharmaceutical uses thereof” (Sumitomo Pharmaceuticals Company, Limited, priority 1996, dated 1998).

One may read the IC50 as the concentration needed to halve the response being measured. Low readings indicate inhibition by little substance, high ones a need for much substance.

In this test the target is T1, Na^+ /H^+ exchange transport system (Rattus norvegicus, UniProt P26431).
T1 construct: isolated ventricular myocytes (rat); endogenous in cells; host or cells: isolated rat ventricular myocytes (primary cells)
T1 sequence (P26431 whole entry): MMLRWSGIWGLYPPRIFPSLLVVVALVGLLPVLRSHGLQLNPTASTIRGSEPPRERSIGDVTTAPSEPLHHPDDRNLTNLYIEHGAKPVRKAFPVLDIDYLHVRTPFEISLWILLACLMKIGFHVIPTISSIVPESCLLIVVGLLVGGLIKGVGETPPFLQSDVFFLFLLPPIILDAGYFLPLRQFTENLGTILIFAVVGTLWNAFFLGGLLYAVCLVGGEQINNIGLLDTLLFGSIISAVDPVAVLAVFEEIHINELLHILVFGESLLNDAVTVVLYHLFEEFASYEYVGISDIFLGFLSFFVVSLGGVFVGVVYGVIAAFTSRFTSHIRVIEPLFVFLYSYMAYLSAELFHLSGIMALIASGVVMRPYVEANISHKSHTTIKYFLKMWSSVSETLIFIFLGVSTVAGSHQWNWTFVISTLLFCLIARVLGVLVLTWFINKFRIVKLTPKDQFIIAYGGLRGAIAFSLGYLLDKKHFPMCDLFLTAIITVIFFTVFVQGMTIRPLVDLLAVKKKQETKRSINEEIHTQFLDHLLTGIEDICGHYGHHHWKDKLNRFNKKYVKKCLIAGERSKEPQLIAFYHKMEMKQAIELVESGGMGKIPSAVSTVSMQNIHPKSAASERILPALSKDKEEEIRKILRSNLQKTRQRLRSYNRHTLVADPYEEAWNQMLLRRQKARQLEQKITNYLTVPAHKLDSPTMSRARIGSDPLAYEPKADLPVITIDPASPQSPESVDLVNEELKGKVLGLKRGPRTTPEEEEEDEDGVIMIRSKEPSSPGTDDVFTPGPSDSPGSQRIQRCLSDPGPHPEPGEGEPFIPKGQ
As to the kind of experiment: Inhibitory effect on the Na^+ /H^+ exchange transport system (in vitro), pH change in isolated ventricular myocytes under an acid load. The class given is cell-based. How it is done:
Inhibitry effect on the Na^+ /H^+ exchange transport system (in vitro)
A test was carried out according to the method of Iemori et al. (J. Hypertension, 8, 153 (1990)). In detail, inhibitory effect on the Na^+ /H^+ exchange transport system was evaluated by using as an indication a pH change in isolated ventricular myocytes (rat) under an acid load.
`Cc1ccc2c3c1cc(C(=O)N=C(N)N)n3CCC2=O` [Example 1, N-(aminoiminomethyl)-5,6-dihydro-9-methyl-6-oxo-4H-pyrrolo [3,2,1-ij]quinoline-2-carboxamide methanesulfonate] registered an IC50 of 0.3 µM. As for `Cc1ccc2c3c1cc(C(=O)N=C(N)N)n3CCO2` [Example 2, N-(aminoiminomethyl)-2,3-dihydro-7-methyl-pyrrolo [1,2,3-de]-1,4-benzoxazine-5-carboxamide methanesulfonate], the figure is 0.2 µM; as for `NC(N)=NC(=O)c1cc2cccc3c2n1CCC3` [Example 3, N-(aminoiminomethyl)-5,6-dihydro-4H-pyrrolo [3,2,1-ij]quinoline-2-carboxamide methanesulfonate], 0.3 µM.
